Data: patent publication US9670226B2, “Sesquiterpenoids” (National Institute of Biological Sciences, Beijing, priority 2014, dated 2017)

What was measured:
[1] = system: IFR3 phosphorylation; assay: LPS-induced type I interferon (IFN) responses; format: cell-based
[2] = system: phosphorylation of IκBα; assay: poly(I:C) (TLR3 ligand) triggered IκBα phosphorylation; format: cell-based
[3] = target: T1, recombinant Flag-IKKβ (Homo sapiens, UniProt O14920); assay: Binding to purified recombinant protein (SDS-PAGE, streptavidin blot); conditions: excess unlabeled compound
T1 construct: made in house; host or cells: 293T cells (transient transfection, anti-Flag purification)
Experimental: To determine whether 223 directly binds to IKKα and IKKβ, we generated recombinant IKKα and IKKβ proteins for further analysis. 293T cells were transfected with Flag-IKKα or Flag-IKKβ plasmid, and the recombinant Flag-IKKα or Flag-IKKβ was captured by anti-Flag agarose beads and was then eluted off the beads using Flag peptide. The purified Flag-IKKα or Flag-IKKβ was incubated with DMSO or increasing concentrations of Probe, and then the mixtures were resolved by SDS-PAGE, followed by immunoblotting with streptavidin or anti-Flag antibody.

[4] = target: IKKγ/NEMO (Homo sapiens, UniProt Q9Y6K9); assay: Association with other NF-κB pathway proteins; format: binding
[5] = target: T2, IKKα Cys46 into serine (Homo sapiens, UniProt O15111, C46S); assay: Binding to Cys46-to-serine mutant
T2 construct: Flag; made in house

[6] = target: T3, IKKβ Cys46 into serine (Homo sapiens, UniProt O14920, C46S); assay: Binding to Cys46-to-serine mutant
T3 construct: Flag; made in house

[7] = system: cervical cancer HeLa cells; assay: Cancer cell survival; format: cell-based, human
[8] = system: glioblastoma T98G cells; assay: Cancer cell survival; format: cell-based, human; conditions: different concentration
[9] = system: BGC-823 human gastric adenocarcinoma xenograft; assay: BGC-823 xenograft in nude mice; format: in vivo; conditions: 223 25 mg/kg, qdx8
Experimental: Next we further examined anti-tumor effect of 223 in vivo. Nude mice bearing a BGC-823 human gastric adenocarcinoma xenograft were treated with vehicle or 223 (25 mg/kg, qdx8) or 10-hydroxycamptothecin (HCPT), a widely used anti-tumor drug (30 mg/kg, q6dx2).

[10] = target: WT-IKKβ (Homo sapiens, UniProt O14920); assay: In vitro kinase assay with Flag-IκBα substrate
[11] = target: C46A-IKKβ (Homo sapiens, UniProt O14920, C46A); assay: In vitro kinase assay with Flag-IκBα substrate
C46A-IKKβ, sequence (O14920 whole entry C46A): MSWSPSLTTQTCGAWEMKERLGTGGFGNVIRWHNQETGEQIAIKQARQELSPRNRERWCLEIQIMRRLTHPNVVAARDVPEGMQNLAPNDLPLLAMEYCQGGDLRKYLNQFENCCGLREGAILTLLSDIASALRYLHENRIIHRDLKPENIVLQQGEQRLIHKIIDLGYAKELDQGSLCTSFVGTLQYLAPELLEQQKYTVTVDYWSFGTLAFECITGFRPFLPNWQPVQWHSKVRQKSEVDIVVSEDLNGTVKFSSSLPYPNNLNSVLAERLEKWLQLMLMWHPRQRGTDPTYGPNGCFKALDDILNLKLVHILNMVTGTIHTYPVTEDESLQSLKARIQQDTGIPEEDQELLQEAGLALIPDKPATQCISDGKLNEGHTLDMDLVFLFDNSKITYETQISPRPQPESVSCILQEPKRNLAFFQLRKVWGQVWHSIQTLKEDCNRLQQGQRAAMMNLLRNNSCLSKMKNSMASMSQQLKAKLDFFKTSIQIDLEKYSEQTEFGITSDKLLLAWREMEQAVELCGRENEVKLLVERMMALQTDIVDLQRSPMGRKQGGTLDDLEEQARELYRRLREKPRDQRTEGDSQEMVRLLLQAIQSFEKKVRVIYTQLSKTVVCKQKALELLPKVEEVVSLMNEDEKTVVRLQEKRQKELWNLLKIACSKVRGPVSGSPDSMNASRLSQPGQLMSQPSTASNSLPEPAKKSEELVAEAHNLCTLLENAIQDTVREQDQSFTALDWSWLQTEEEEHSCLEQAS

IKKγ/NEMO, sequence (Q9Y6K9 whole entry): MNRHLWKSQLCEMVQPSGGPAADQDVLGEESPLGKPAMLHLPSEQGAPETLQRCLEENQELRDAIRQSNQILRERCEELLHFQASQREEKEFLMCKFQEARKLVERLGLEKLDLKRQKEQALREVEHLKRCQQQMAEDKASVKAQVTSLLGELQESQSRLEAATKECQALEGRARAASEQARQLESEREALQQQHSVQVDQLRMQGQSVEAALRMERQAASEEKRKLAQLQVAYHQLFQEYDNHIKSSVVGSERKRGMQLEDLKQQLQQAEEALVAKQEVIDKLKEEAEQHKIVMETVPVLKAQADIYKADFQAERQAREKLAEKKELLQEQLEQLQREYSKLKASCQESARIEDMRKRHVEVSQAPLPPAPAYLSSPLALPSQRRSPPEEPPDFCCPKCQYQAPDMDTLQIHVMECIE
T2 sequence (O15111 whole entry C46S): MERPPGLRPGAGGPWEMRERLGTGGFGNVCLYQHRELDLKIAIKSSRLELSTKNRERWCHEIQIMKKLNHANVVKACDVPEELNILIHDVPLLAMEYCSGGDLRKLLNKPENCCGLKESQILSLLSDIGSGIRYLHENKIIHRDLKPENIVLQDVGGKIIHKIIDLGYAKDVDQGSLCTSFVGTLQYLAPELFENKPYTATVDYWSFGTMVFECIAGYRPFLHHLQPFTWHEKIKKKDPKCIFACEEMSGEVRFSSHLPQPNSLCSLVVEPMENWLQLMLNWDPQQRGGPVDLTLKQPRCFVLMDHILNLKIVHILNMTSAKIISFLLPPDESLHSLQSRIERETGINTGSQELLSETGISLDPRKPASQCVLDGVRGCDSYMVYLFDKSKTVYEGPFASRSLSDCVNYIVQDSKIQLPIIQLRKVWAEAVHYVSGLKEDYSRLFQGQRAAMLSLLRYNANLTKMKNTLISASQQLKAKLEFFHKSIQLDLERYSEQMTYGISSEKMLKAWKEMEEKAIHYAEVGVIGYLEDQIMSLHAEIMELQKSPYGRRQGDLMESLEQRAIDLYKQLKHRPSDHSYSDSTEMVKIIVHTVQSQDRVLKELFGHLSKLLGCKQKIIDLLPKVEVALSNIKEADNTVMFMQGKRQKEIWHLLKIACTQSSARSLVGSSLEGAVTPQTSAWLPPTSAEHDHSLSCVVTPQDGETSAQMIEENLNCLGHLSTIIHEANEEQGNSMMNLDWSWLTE
WT-IKKβ, sequence (O14920 whole entry): as the sequence (O14920 whole entry C46A) above, with A46C counted along it
T1 sequence (O14920 whole entry): as the sequence (O14920 whole entry C46A) above, with A46C counted along it
T3 sequence (O14920 whole entry C46S): as the sequence (O14920 whole entry C46A) above, with A46S counted along it

C=C1C(=O)O[C@@H]2[C@@H]3[C@@H](C[C@@]4(O)[C@]3(O)CC[C@]43C(=O)C[C@H]4C(=C)CC[C@H]5C(=C)C(=O)O[C@@H]5[C@H]43)C(=C)CC[C@@H]12 [Compound 223, (+)-Ainsliadimer A]
effect on LPS-induced type I interferon (IFN) responses (IFR3 phosphorylation) [1]: no effect
phosphorylation of IκBα triggered by poly(I:C) [2]: markedly suppressed
competition of Probe binding to recombinant IKKβ [3]: competed off
association with IKKγ/NEMO [4]: no association
interaction with IKKα Cys46 to serine mutant [5]: abolished
interaction with IKKβ Cys46 to serine mutant [6]: abolished
inhibition of cell survival (cell viability by ATP levels) ([7]; 48 hours): dose response inhibition
cell death ([7]; different concentration): Dramatic cell death
cell death [8]: Dramatic cell death
anti-tumor effect relative to HCPT (30 mg/kg, q6dx2) [9]: comparable
side effects and body weight during administration ([9]; HCPT 30 mg/kg, q6dx2): did not display any discernible side effects or significant changes in body weight
mice with significant tumor remission ([9]; after 12 days): eight of eight
xenograft tumor response ([9]; after 12 days, compared to vehicle): Significant xenograft tumor remission
WT-IKKβ-induced phosphorylation of IκBα [10]: significantly suppressed
phosphorylation of IκBα triggered by C46A-IKKβ [11]: resistant
